Target: T1, 11β-HSD 1 (Homo sapiens, UniProt P28845)
T1 construct: detecting cortisol generated from cortisterone by human liver microsomes; from tissue; host or cells: human liver microsomes
Experiment: In vitro inhibition of 11β-HSD 1, HTRF detection of cortisol generated by human liver microsomes
Format: biochemical
Settings: 1 μM test compound, 100% indicates no inhibition, zero or below zero indicates complete inhibition (relative to carbenoxolone)
Outline: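 Human liver microsomes with test compound were incubated 1 h at 37 °C in Tris buffer, pH 6.0, with 200 μM NADPH and 80 nM cortisone. Cortisol formed was detected by competitive HTRF immunoassay (665/615 nm ratio) and calibrated against a cortisol standard curve. Values are activities at 1 μM compound relative to carbenoxolone, where 100% indicates no inhibition.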

T1 sequence (P28845 whole entry): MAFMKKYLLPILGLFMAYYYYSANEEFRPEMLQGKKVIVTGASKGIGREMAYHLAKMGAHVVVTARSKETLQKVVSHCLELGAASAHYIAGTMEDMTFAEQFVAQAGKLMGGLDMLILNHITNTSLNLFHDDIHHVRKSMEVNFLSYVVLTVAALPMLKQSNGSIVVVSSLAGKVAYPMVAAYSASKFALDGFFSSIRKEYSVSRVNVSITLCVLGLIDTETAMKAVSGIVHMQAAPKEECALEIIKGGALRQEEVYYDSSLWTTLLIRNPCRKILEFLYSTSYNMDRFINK

Molecule	Inhibitory activity on 11β-HSD 1, % CTL
O=C(c1cc(F)c(O)c(F)c1)N1[C@@H]2CC[C@H]1C[C@@H](c1ccc(F)cc1)C2 [Example 172, endo-(3,5-Difluoro-4-hydroxy-phenyl)-[3-(4-fluoro-phenyl)-8-aza-bicyclo[3.2.1]oct-8-yl]-methanone]	0 % CTL
Nc1ccc(C(=O)N2[C@@H]3CC[C@H]2C[C@@H](c2ccc(F)cc2)C3)cc1Cl [Example 173, endo-(4-Amino-3-chloro-phenyl)-[3-(4-fluoro-phenyl)-8-aza-bicyclo[3.2.1]oct-8-yl]-methanone]	−46 % CTL
O=C(c1ccc(O)c(C(F)(F)F)c1)N1[C@@H]2CC[C@H]1C[C@@H](c1ccc(F)cc1)C2 [Example 174, endo-[3-(4-Fluoro-phenyl)-8-aza-bicyclo[3.2.1]oct-8-yl]-(4-hydroxy-3-trifluoromethyl-phenyl)-methanone]	−40 % CTL
COc1cc(C(=O)N2[C@@H]3CC[C@H]2C[C@@H](c2ccc(F)cc2)C3)cc(Cl)c1O [Example 175, endo-(3-Chloro-4-hydroxy-5-methoxy-phenyl)-[3-(4-fluoro-phenyl)-8-aza-bicyclo[3.2.1]oct-8-yl]-methanone]	−37 % CTL
Nc1ccc(C(=O)N2[C@@H]3CC[C@H]2C[C@@H](c2ccc(F)cc2)C3)cc1F [Example 176, endo-(4-Amino-3-fluoro-phenyl)-[3-(4-fluoro-phenyl)-8-aza-bicyclo[3.2.1]oct-8-yl]-methanone]	−42 % CTL
Nc1ccc(C(=O)N2[C@@H]3CC[C@H]2C[C@@H](c2ccc(F)cc2)C3)cc1 [Example 177, endo-(4-Amino-phenyl)-[3-(4-fluoro-phenyl)-8-aza-bicyclo[3.2.1]oct-8-yl]-methanone]	−44 % CTL
Nc1c(Cl)cc(C(=O)N2[C@@H]3CC[C@H]2C[C@@H](c2ccc(F)cc2)C3)cc1Cl [Example 178, endo-(4-Amino-3,5-dichloro-phenyl)-[3-(4-fluoro-phenyl)-8-aza-bicyclo[3.2.1]oct-8-yl]-methanone]	−22 % CTL
O=C(c1cc(F)c(O)c(Cl)c1)N1[C@@H]2CC[C@H]1C[C@@H](c1ccc(F)cc1)C2 [Example 179, endo-(3-Chloro-5-fluoro-4-hydroxy-phenyl)-[3-(4-fluoro-phenyl)-8-aza-bicyclo[3.2.1]oct-8-yl]-methanone]	−11 % CTL
O=C(c1ccc2[nH]ncc2c1)N1[C@@H]2CC[C@H]1C[C@@H](c1ccc(F)cc1)C2 [Example 180, endo-[3-(4-Fluoro-phenyl)-8-aza-bicyclo[3.2.1]oct-8-yl]-(1H-indazol-5-yl)-methanone]	−41 % CTL
COc1cc(C(=O)N2[C@@H]3CC[C@H]2C[C@@H](c2ccc(F)cc2)C3)cc(OC)c1O [Example 181, endo-[3-(4-Fluoro-phenyl)-8-aza-bicyclo[3.2.1]oct-8-yl]-(4-hydroxy-3,5-dimethoxy-phenyl)-methanone]	18 % CTL
endo-[3-(3,4-Difluoro-phenyl)-8-aza-bicyclo[3.2.1]oct-8-yl]-(2,3-dihydro-benzo[1,4]dioxin-6-yl)-methanone [Example 137]	16 % CTL
